Among the data in publication PMC11772769, “Selective cargo and membrane recognition by SNX17 regulates its interaction with Retriever” (EMBO Reports, 2024) are Kd values, retold here.

Where a chain is given by its changes, count along the chain named. Read-outs that look alike come from different tables or passages of the source. Where no end group is shown, it is not given here.

One experiment has as its target T1, MBP-SNX17 L470G (Homo sapiens, UniProt Q15036, L470G).
T1 construct: M protein marker, R Retriever complex, FL full-length; His (N, cleaved yes); made in house; host or cells: Escherichia coli BL21(DE3)
T1 sequence (Q15036 1-470 L470G): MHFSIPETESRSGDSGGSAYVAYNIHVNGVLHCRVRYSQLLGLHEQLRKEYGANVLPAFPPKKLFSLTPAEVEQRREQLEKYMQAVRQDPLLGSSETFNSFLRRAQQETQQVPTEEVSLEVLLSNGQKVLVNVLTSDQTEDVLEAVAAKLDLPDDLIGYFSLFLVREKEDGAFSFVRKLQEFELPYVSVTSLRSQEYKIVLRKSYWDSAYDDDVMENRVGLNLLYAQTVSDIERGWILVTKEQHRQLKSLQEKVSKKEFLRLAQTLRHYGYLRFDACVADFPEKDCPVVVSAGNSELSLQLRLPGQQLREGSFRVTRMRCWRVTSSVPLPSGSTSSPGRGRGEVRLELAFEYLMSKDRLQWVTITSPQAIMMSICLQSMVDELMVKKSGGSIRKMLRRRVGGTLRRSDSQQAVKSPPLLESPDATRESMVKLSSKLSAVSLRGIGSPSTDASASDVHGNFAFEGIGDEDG
In words: Fluorescence anisotropy binding of 5-FAM cargo peptides to MBP-SNX17 L470G. As to the method:
(§1) The peptides used for binding assays were synthesized with an N-terminal 5-Carboxyfluorescein (FAM) and HPLC purified (≥95%) by GenScript. Lyophilized peptides were resuspended in 100 mM Hepes pH 8.0 at 5 mg/ml and further diluted in the assay buffer (50 mM Hepes pH 7.5, 300 mM NaCl, and 1 mM DTT). […] The mixture was incubated at 25 °C for at least 30 min and then transferred to 96 Flat Black plates. Fluorescence anisotropy was measured at 25 °C using Spark 10M Plate Reader (Tecan) with a 485/20 excitation filter and a 535/35 emission filter. The dissociation constants were calculated in GraphPad Prism by nonlinear regression fitting of the experimental data to a one-site total binding model. The final KD measurement is the mean of at least two independent experiments.

The next experiment addresses T2, MBP-SNX17V380D (Homo sapiens, UniProt Q15036, V380D).
T2 construct: M protein marker, R Retriever complex, FL full-length; His (N, cleaved yes); made in house; host or cells: Escherichia coli BL21(DE3)
T2 sequence (Q15036 1-470 V380D): T1 sequence (Q15036 1-470 L470G) with V380D, G470L
In words: Fluorescence anisotropy binding of 5-FAM peptides to MBP-SNX17 V380D. As to the method:
as §1, with “Lyophilized” for “The peptides used for binding assays were synthesized with an N-terminal 5-Carboxyfluorescein (FAM) and HPLC purified (≥95%) by GenScript. Lyophilized”
A general note: Polarisation of emitted light reports the rotation of a fluorescent probe.

The target of the next experiment is T3, MBP-SNX17N459A+F462A (Homo sapiens, UniProt Q15036, F462A/N459A).
T3 construct: M protein marker, R Retriever complex, FL full-length; His (N, cleaved yes); made in house; host or cells: Escherichia coli BL21(DE3)
T3 sequence (Q15036 1-470 N459A/F462A): T1 sequence (Q15036 1-470 L470G) with N459A, F462A, G470L
In words: Fluorescence anisotropy binding of 5-FAM peptides to MBP-SNX17 N459A+F462A. As to the method: as §1, with “Lyophilized” for “The peptides used for binding assays were synthesized with an N-terminal 5-Carboxyfluorescein (FAM) and HPLC purified (≥95%) by GenScript. Lyophilized”

Experiment [1] concerns the target T4, SNX17FERM-CT (amino acids 109-470) (Homo sapiens, UniProt Q15036).
T4 construct: His-Sumo3 (N, cleaved yes); made in house; host or cells: Escherichia coli BL21(DE3)
T4 sequence (Q15036 109-470): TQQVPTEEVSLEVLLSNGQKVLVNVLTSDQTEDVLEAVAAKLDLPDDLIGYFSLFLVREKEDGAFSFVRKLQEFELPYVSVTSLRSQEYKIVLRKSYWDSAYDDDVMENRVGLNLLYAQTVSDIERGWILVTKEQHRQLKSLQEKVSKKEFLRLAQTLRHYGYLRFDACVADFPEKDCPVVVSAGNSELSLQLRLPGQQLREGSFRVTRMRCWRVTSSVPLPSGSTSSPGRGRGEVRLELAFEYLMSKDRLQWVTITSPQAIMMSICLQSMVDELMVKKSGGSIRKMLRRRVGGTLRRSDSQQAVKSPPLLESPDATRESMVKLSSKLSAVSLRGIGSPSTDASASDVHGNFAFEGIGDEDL
In words: Fluorescence anisotropy binding of 5-FAM cargo peptides to SNX17FERM-CT. The protocol:
as §1, with “Lyophilized” for “The peptides used for binding assays were synthesized with an N-terminal 5-Carboxyfluorescein (FAM) and HPLC purified (≥95%) by GenScript. Lyophilized”

The next experiment deals with MBP (Escherichia coli, UniProt P0AEX9). Kind of experiment: Fluorescence anisotropy, MBP negative control. Format: binding. The protocol: as §1, with “Lyophilized” for “The peptides used for binding assays were synthesized with an N-terminal 5-Carboxyfluorescein (FAM) and HPLC purified (≥95%) by GenScript. Lyophilized”

The Kd is the constant that tells how readily two partners part at equilibrium.

On to KLITYDNPAYEGID [L2 14-mer], for which the Kd was 1100 ± 600 nM on MBP-SNX17 L470G; greater than 32 µM on MBP-SNX17V380D (0.1 μM 5-FAM peptide, pH 7.5, 300 mM NaCl, 25 °C, one-site total binding, Bmax fixed at 240, three biological replicates (Fig. 4E)); greater than 32 µM on MBP-SNX17V380D (5-FAM peptide, replicate Y1, sheet KD-L2-14-mer, unit inferred, read-out: KD MBP-SNX17V380D); greater than 32 µM on MBP-SNX17V380D (5-FAM peptide, replicate Y2, sheet KD-L2-14-mer, unit inferred, read-out: KD MBP-SNX17V380D); greater than 32 µM on MBP-SNX17V380D (5-FAM peptide, replicate Y3, sheet KD-L2-14-mer, unit inferred, read-out: KD MBP-SNX17V380D); 600 ± 100 nM at MBP-SNX17N459A+F462A. For the same sequence, the dissociation constant (Kd) was 640 nM in experiment [1]; greater than 32 µM at MBP (0.1 μM 5-FAM peptide, pH 7.5, 300 mM NaCl, 25 °C (Fig. EV3B), read-out: KD MBP (negative control)); greater than 32 µM at MBP (5-FAM peptide, replicate Y1, sheet KD-L2-14-mer, unit inferred, read-out: KD MBP); greater than 32 µM at MBP (5-FAM peptide, replicate Y2, sheet KD-L2-14-mer, unit inferred, read-out: KD MBP); greater than 32 µM on MBP (5-FAM peptide, replicate Y3, sheet KD-L2-14-mer, unit inferred, read-out: KD MBP).
